Experimental data published in US9522978B2, “PI polyamide” (NIHON UNIVERSITY, priority 2013, dated 2016).

Key:
[1] = test system: LNCaP cells; assay: Evaluation of cell migration ability (cell migration assay); type: cell-based, Human; conditions: 5 μM, 3 days, compared to PI polyamide (control), FIGS. 9 and 10
Description: After culturing cells into which the PI polyamide (1) was introduced and cells into which the PI polyamide (control) was introduced for comparison, the migration ability of the cells was examined by a cell migration assay using a cell culture insert and a 8.0 μm pore size PET filter (manufactured by Becton Dickinson).
In particular, after fibronectin (manufactured by Sigma) diluted with PBS to 10 μg/ml was allowed to act on a culture dish for 30 minutes to form a lower filter, 700 μl of the Phenol-Red-containing RPMI 1640 medium of 3. (1) was added to a lower chamber.
The LNCaP cells were cultured for 3 days in the Phenol-Red-containing medium of 3. (1) to which each of the PI polyamides was added at 5 μM and divided into units of 5×10^4 cells, and each unit of cells was suspended in 300 μl of the Phenol-Red-containing medium of 3. (1) and added to the upper chamber. After the cells were cultured at 37° C. under the condition of 5% CO2, the filter was peeled off.
The cells on the lower filter were fixed by methanol for 30 minutes and then incubated for 30 seconds in Gimsa's stain solution (manufactured by Muto Pure Chemicals). Subsequently, the cells were observed by a microscope of 200 magnifications to count the number of cells, thereby evaluating the cell migration ability.

[2] = test system: ACSL3 gene; assay: Examination of expression of ACSL3 gene by RT-PCR in LNCaP cells; type: cell-based, Human
Description: The expression of ACSL3 Gene was examined by RT-PCR in a cell into which each of the PI polyamides (1) to (3) was introduced. For comparison, the same examination was conducted for a cell into which the PI polyamide (control) was introduced.
The LNCaP cells were cultured for 3 days in the Phenol-Red-free medium of 3. (2) to which each of the PI polyamides was added at 5 μM. Subsequently, DHT (100 nM) of 4. was added into the medium to apply androgen stimulation.
After RNA is extracted from the cells by using Isogen (Nippon Gene) in accordance with a manual, cDNA was prepared by using PrimeScript (registered trademark) Reverse Transcriptase (manufactured by TaKaRa).
Each of the cDNAs prepared in 1) was used as a template DNA to examine with primers listed in Table 4 the presence/absence of expression of a fusion gene or an ERG gene in the prostate cancer cell into which each of the PI polyamides was introduced. In this RT-qPCR, Power SYBR (registered trademark) Green PCR Master Mix (manufactured by Applied Biosystems) was used.

[3] = test system: LNCaP cells; assay: Evaluation of proliferation ability by MTS assay; type: cell-based, Human
Description: After treatment with the PI polyamide (1) or the PI polyamide (control) for comparison, the proliferation ability of these cells were examined by MTS assay.
In particular, the LNCaP cells were seeded on a 96-well plate to 5×10^3 cells in total and cultured for 3 days in the Phenol-Red-free medium of 3. (2) to which each of the PI polyamides was added at 1 μM or 5 μM. Subsequently, DHT (100 nM) of 4. was added into the medium to apply androgen stimulation. After the stimulation, each of the cells were cultured for 24, 48, or 96 hours.
After the specified stimulation time, 10 μl of an MTS reagent (Cell Titer 96 AQueous One Solution Cell Proliferation Assay, Promega, Madison Wis.) was added to the cells before incubation for 1 hour. Subsequently, the absorbance (490 nm) of the cells was measured and the numbers of the cultured cells were examined to evaluate the cell proliferation ability.

[4] = test system: ACSL3 protein; assay: Western blotting of ACSL3 protein from excised tumors; type: in vivo, Human; conditions: nude mice, tail vein 6 mg/kg once per week for 4 weeks, FIG. 12
Description: (§1) To 7-week-old male nude mice (n=10), 3×10^6 prostate cancer cells (LNCaP) were subcutaneously injected at the right flank. A tumor size was monitored by caliper measurement every 3 days. When the tumor size reaches […], the PI polyamide (1) or the PI polyamide (control) dissolved in dH2O was injected from a tail vein at 6 mg/kg bodyweight (PI polyamide (1): n=4, PI polyamide (control): n=6).
(§2) The injection was performed once per week for 4 weeks and the tumor size was measured every week. After one week from the last injection, the nude mice were dissected to excise the tumors.
FIG. 12 depicts a result of western blotting with an ACSL3 antibody of protein extracted using a lysis buffer (NP40 buffer) from the excised tumors (two individuals #1 and #2) (upper portion of FIG. 12; lower portion indicates expression of β-actin protein).

[5] = test system: ACSL3 transcriptional regulatory region (AR response region); assay: Luciferase assay of AR activity in ACSL3 transcriptional regulatory region; type: cell-based, Human; conditions: LNCaP, 1 μM or 5 μM, DHT 100 nM, compared to same amount of PI polyamide (control), FIG. 6
Description: (§3) About 1 kb of AR binding site (ARBS) located 63 kb upstream of the ACSL3 transcription start point was extracted (SEQ ID NO:10) and insert into a luciferase vector (pGL3 promoter vector: Promega, Madison, Wis.). This vector was used for transfection of a prostate cancer cell (LNCaP) cultured for about 60 hours in the Phenol-Red-free medium of 3. (2) by using FuGENE (registered trademark) HD (Roche Applied Science) as a transection reagent in accordance with the protocol thereof.
(§4) After about 12 hours, androgen stimulation using 100 nM of DHT and introduction of the PI polyamide (1) or PI polyamide (control) (1 μM or 5 μM) were performed and followed by a luciferase assay. This test was conducted by using prostate cancer cells (LNCaP) incorporated with a PSA promoter region (SEQ ID NO:22) known to have AR response activity as a positive control for the luciferase vector.

[6] = test system: PSA promoter region; assay: Luciferase assay of AR activity in PSA promoter region (positive control); type: cell-based, Human; conditions: LNCaP, compared to same amount of PI polyamide (control), FIG. 7
Description: as §3, §4

[7] = test system: prostate cancer cells (LNCaP) tumor; assay: Effect of the PI polyamide on a tumor in nude mice injected with LNCaP; type: in vivo; conditions: tail vein 6 mg/kg once per week for 4 weeks, compared to PI polyamide (control), FIG. 11
Description: The effect of the PI polyamide on a tumor was confirmed.
as §1, §2

[8] = test system: Oct1 oligo DNA (Oct1 gene binding sequence, SEQ ID NO:1); assay: DNA Binding Assay (gel electrophoretic pattern); conditions: 5 μl of 0.2 mM PI polyamide mixed with 15 μl hairpin double strand DNA, 37° C. 1 hour
Description: For each of the PI polyamides (1) to (3) (three types) generated in 5, a DNA Binding Assay of the following steps 1) and 2) was performed to confirm binding to the Oct1 gene binding sequence (SEQ ID NO:1). The PI polyamide (control) was also examined in terms of the presence/absence of binding to the Oct1 gene binding sequence (SEQ ID NO:1).
1) Molecules (50-base) were created that have Oct1 oligo DNA including the same base sequence as the Oct1 gene binding sequence (SEQ ID NO:1) labelled with FITC, and the oligo at a final concentration of 1 μM was heated to 100° C. in an annealing buffer (20 mM Tris-HCl, 2 mM EDTA, 200 mM NaCl). The oligo was cooled for 2 hours in stages to 30° C. As a result, the Oct1 oligo DNA underwent self-annealing and forms a double strand in a hairpin shape.
2) 15 μl of solution containing the hairpin-shaped double strand DNA of 1) was mixed with 5 μl of each of the 0.2 mM PI polyamides (1) to (3) and PI polyamide (control) and incubated at 37° C. for 1 hour to acquire a mixed solution.
3) The mixed solution of 2) was electrophoresed in 5-20% acrylamide gel (TBE buffer) and an electrophoretic pattern was monitored with LAS 4000 (manufactured by GE Healthcare Japan) to determine the presence/absence of binding from a difference in the electrophoretic pattern.

[9] = 5 μM, 3 days, androgen stimulation DHT 100 nM, FIG. 4
[10] = concentration and time not stated

Compound	cell migration ability (invasive potential) [1]	expression of the ACSL3 gene [2, 9]	cell proliferation [3, 10]	expression of the ACSL3 protein in excised tumors [4]	AR activity in the ACSL3 transcriptional regulatory region (AR response region) [5]	expression of the ACSL3 gene ([2]; 5 μM (1 μM or 5 μM tested), androgen stimulation, FIG. 5)	AR activity in the PSA promoter region [6]	formation of tumor [7]	cell proliferation ([3]; 5 μM, after 48 hours of incubation, compared to PI polyamide (control) 5 μM, FIG. 8)	cell proliferation ([3]; 5 μM, after 96 hours of incubation, FIG. 8)	binding to the Oct1 oligo DNA (presence/absence) [8]
CC(=O)Nc1cn(C)c(C(=O)Nc2cc(C(=O)NCCC(=O)Nc3cc(C(=O)Nc4cc(C(=O)Nc5cc(C(=O)NCCCC(=O)Nc6cc(C(=O)Nc7cc(C(=O)Nc8cc(C(=O)NCCC(=O)Nc9cn(C)c(C(=O)Nc%10cc(C(=O)NCCC(=O)NCCCN(C)C)n(C)c%10)n9)n(C)c8)n(C)c7)n(C)c6)n(C)c5)n(C)c4)n(C)c3)n(C)c2)n1 [PI polyamide (2), AcImPyβPyPyPyγPyPyPyβImPyβDp]	suppressed in the same way	inhibited	suppressed in the same way								
CC(=O)Nc1cc(C(=O)Nc2cc(C(=O)NCCC(=O)Nc3cc(C(=O)Nc4cc(C(=O)Nc5cc(C(=O)NCCCC(=O)Nc6cn(C)c(C(=O)Nc7cc(C(=O)Nc8cc(C(=O)NCCC(=O)Nc9cc(C(=O)Nc%10cc(C(=O)NCCC(=O)NCCCN(C)C)n(C)c%10)n(C)c9)n(C)c8)n(C)c7)n6)n(C)c5)n(C)c4)n(C)c3)n(C)c2)n(C)c1 [PI polyamide (3), AcPyPyβPyPyPyγImPyPyβPyPyβDp]	suppressed in the same way	inhibited	suppressed in the same way								
CC(=O)Nc1cc(C(=O)Nc2cc(C(=O)NCCC(=O)Nc3cn(C)c(C(=O)Nc4cc(C(=O)Nc5cc(C(=O)NCCCC(=O)Nc6cc(C(=O)Nc7cn(C)c(C(=O)Nc8cc(C(=O)NCCC(=O)Nc9cn(C)c(C(=O)Nc%10cc(C(=O)NCCC(=O)NCCCN(C)C)n(C)c%10)n9)n(C)c8)n7)n(C)c6)n(C)c5)n(C)c4)n3)n(C)c2)n(C)c1 [PI polyamide (1), AcPyPyβImPyPyγPyImPyβImPyβDp]	significantly inhibited	inhibited		remarkably inhibited	significantly reduces	particularly inhibited	no significant difference	remarkably inhibited	significantly inhibited	further significantly inhibited	
AcPyPyPyImβImγPyβPyImβImβDp [PI polyamide (control), reference compound]		not inhibited		expressed							no binding occurs
